Read-outs that look alike come from different tables or passages of the source.
Tests used:
[1] = system: rats with acute ischemia induced by Middle Cerebral Artery Occlusion (MCAO); assay: Example 18: acute ischemia induced by MCAO in rats; type: in vivo, rat; conditions: for infarct volume: Day 14 after MCAO, TTC staining, mean±SEM; for reduction of infarct volumes: comparators: oral 60 mg/kg bid, Edaravone 3 mg/kg i.v. q.d.
[2] = rabbit
[3] = system: rats with acute ischemia induced by Middle Cerebral Artery Occlusion (MCAO); assay: Example 16: acute ischemia induced by MCAO in rats; type: in vivo, rat; conditions: for mortalities: deaths of animals in group; for infarct volume: Day 14 after MCAO, TTC staining, mean±SEM; for reduction of infarct volumes: comparators: oral 60 mg/kg bid, Edaravone 3 mg/kg i.v. q.d.
[4] = system: rats with acute ischemia induced by Middle Cerebral Artery Occlusion (MCAO); assay: Example 15: acute ischemia induced by MCAO in rats; type: in vivo, rat; conditions: for infarct volume: Day 14 after MCAO, TTC staining, mean±SEM; for reduction of infarct volumes: comparators: oral 60 mg/kg bid, Edaravone 3 mg/kg i.v. q.d.
[5] = system: rats with acute ischemia induced by Middle Cerebral Artery Occlusion (MCAO); assay: Example 14: acute ischemia induced by middle cerebral artery occlusion (MCAO) in rats; type: in vivo, rat; conditions: for infarct volume: Day 14 after MCAO, TTC staining, mean±SEM; for reduction of infarct volumes: comparators: oral 60 mg/kg bid, Edaravone 3 mg/kg i.v. q.d.
[6] = system: rats with acute ischemia induced by Middle Cerebral Artery Occlusion (MCAO); assay: Example 17: acute ischemia induced by MCAO in rats; type: in vivo, rat; conditions: for infarct volume: Day 14 after MCAO, TTC staining, mean±SEM; for reduction of infarct volumes: comparators: oral 60 mg/kg bid, Edaravone 3 mg/kg i.v. q.d.
[7] = system: middle cerebral artery (MCA) thrombosis model of monkeys; assay: Example 19: middle cerebral artery (MCA) thrombosis model of monkeys; conditions: aspirin 20 mg/kg/time oral, twice a day
Experimental: Aspirin was administered orally by gavage using a nasal catheter with a disposal syringe. The catheter was inserted into the stomach through the mouth. The treatment was once per day of MCA thrombosis (day 0), twice per day for 27 days.
The monkeys that had been fastened for at least 12 h were anesthetized with intramuscular administration of ketamine hydrochloride (20 mg/kg), and placed on an operation-bed. Anesthesia was continued with 1.0% isoflurane in O2 gas until 30 min. The inhalation anesthesia was performed with anesthesia machines (SN23402, Hallowell engineering and manufacturing corporation, USA) and respirators (SN23402, Hallowell engineering and manufacturing corporation, USA), and placed on an operation-bed. During anesthesia, body temperature of the animals (rectal temperature) was controlled between 37.0±0.5° C. by heating mattresses (XMTA-7000, Delixi Electric., Ltd.).
Under anesthesia, the left eye was enucleated using a bipolar coagulation device (Valleylab Force 1C, USA). A craniotomy was then performed supralaterally to the left side of the optic nerve. The next day animals were anesthetized with ketamine hydrochloride (20 mg/kg) and the dura and subarachnoid membrane were opened. MCA thrombosis was induced by photochemical reaction. The proximal part of the main MCA trunk. was irradiated with green light wave length 532 nm achieved by use of a xenon lamp (GL532T3-100FC, Shanghai Laser& Optics Century Col., Ltd.). The irradiation was directed by a 3-mm diameteroptic fiber mounted on a micromanipulator. Irradiation was started and rose bengal 20 mg/kg was injected intravenously. Photoirradiation was continued for a 30 min. The dura was then covered with a moist gelatin sponge.
Neurological deficits (see Table 3) were assessed 1, 3, 5, 7, 14 and 28 days after the onset of MCA thrombosis (day 0) in a blind manner. The neurological deficits was scored on consciousness, sensory system, motor system and skeletal muscle coordination, and the total neurological deficit score was calculated by summing the scores of consciousness, sensory system, motor system and skeletal muscle coordination.
The survival monkeys were deeply anesthetized with pentobarbital sodium (35 mg/kg, i.v.) 28 days after the onset of MCA thrombosis. After cutting the atriums of heart, 200 mL of heparinized physiological saline (10 U/mL) was allowed to perfuse the brain via the common carotid arteries, and followed by perfusion of 200 mL of 10% formalin neutral buffer solution. The whole brain was removed, and then was put in pathology sample preservation packs containing 10% formalin neutral buffer solution. For each brain sample, the coronal sections (thickness: 7-8 μm) per site were prepared at 10 sites at 4-mm intervals. Slices per site were each stained with H & E reagent.
Measurement of cerebral infarct lesions was carried out in a blind manner. The infarct lesions in the ischemic side are defined as a necrotic portion compared with that in the contralateral side. The infarcted area of left cerebral hemisphere (A) in the cross-sections was traced and measured using a computerized image analysis system (image J).
When the infarct size of 2 serial section was made into D and D′, the infarcted volume using the thickness (4 mm) of a section is measured in the following formula:
Total infarcted volume is calculated by summing the infarcted volume of the 10 serial sections.

[8] = system: myocardial infarction in minipigs; assay: Example 20: myocardial infarction efficacy study in minipigs (circumflex coronary artery thrombosis); type: in vivo, minipig; conditions: aspirin 20 mg/kg/time oral, twice a day
Experimental: Total 24 male minipigs were used for this study. […] The minipigs were already quarantined and acclimated. Before animal being transferred from holding colony, a physical examination was performed and the acceptability of the animals for the study was evaluated by veterinary. […] [table] […] Under anesthesia, thoracotomy was carried out and the circumflex coronary artery of the heart was exposed. The circumflex coronary artery thrombosis was induced by photochemical reaction. […] Photoirradiation was continued for a 30 min. […] After cutting the femoral artery, thoracotomy was carried out and the heart was removed. […] TTC regent for 5 min. After staining with TTC reagent, the photograph of the heart 5 blocks was taken. All blocks were immersed in 10% formalin neutral buffer solution. The 2nd block appeared large necrotic area was cut sections (thickness: 7-8 μm). Slice was stained with H & E reagent. […] The infarct lesions were defined as a necrotic portion of TTC stained blocks. […] The histopathological alteration (necrosis, inflammation, granulation, etc.) of myocardial infarction was examined using H & E stained slides.

[9] = high dose 60 mg/kg topical bid 14 days
[10] = high dose group compared to vehicle group
[11] = high dose groups vs vehicle group
[12] = low dose 15 mg/kg topical bid 14 days
[13] = low, middle and high dose groups, Day 5-14, vs vehicle group by t-test
[14] = middle dose 30 mg/kg topical bid 14 days

For `CC(=O)Oc1ccccc1C(=O)Oc1ccccc1C(=O)OCC1CCCN1.Cl` (stereo not shown) [Compound-14, (pyrrolidin-2-yl)methyl 2-(2-acetoxybenzoyl)oxybenzoate hydrochloride], the infarct volume [1, 9] was 32.98%±2.546, the mortalities ([1]; high dose 60 mg/kg topical bid, deaths of animals in group) was 0 of 25 and the “neuroprotective effect on brain ischemic injury” value (shortened to “neuroprotective effect”) [1, 10] was “good neuroprotective effect”. For the same compound, the neurological deficit scores [1, 11] was “show differences significantly”, the infarct volume [1, 12] was 36.87%±2.265 and the body weight [1, 13] was “increased”. For the same compound, the infarct volume [1, 14] was 35.39%±2.479, the “The cumulative amount of test compounds” value ([2]; 1 h) was 0.37 mg and the “The cumulative amount of test compounds” value ([2]; 2 h) was 0.84 mg. For the same compound, the “The cumulative amount of test compounds” value ([2]; 4 h) was 1.82 mg and the “The cumulative amount of test compounds” value ([2]; 8 h) was 3.69 mg.
In the case of `O=C(O)c1cc(-c2ccc(F)cc2F)ccc1O` [Compound-12, 2′,4′-difluoro-4-hydroxyl-[1,1′-biphenyl]-3-carboxylic acid, reference compound], the “The cumulative amount of test compounds” value ([2]; 1 h) is reported as 0.000 mg, the “The cumulative amount of test compounds” value ([2]; 2 h) is reported as 0.001 mg and the “The cumulative amount of test compounds” value ([2]; 4 h) is reported as 0.001 mg. The “The cumulative amount of test compounds” value ([2]; 8 h) was 0.003 mg.
With “(pyrrolidin-2-yl)methyl acetoxybenzoate hydrochloride [Compound-2]” the mortalities ([3]; high dose 60 mg/kg topical bid) was 0 of 25, the infarct volume [3, 12] was 33.11%±2.212 and the “neuroprotective effect” value ([3]; low, middle and high dose groups compared to vehicle group) was “good neuroprotective effect”. The neurological deficit scores ([3]; low, middle and high dose groups vs vehicle group) was “show differences significantly”, the body weight [3, 13] was “increased” and the infarct volume [3, 14] was 27.03%±2.123. For the same compound, the mortalities ([3]; middle dose 30 mg/kg topical bid) was 0 of 25.
In the case of `Cl.O=C(OCC1CCCN1)c1cc(-c2ccc(F)cc2F)ccc1O` (stereo not shown) [Compound-11, (pyrrolidin-2-yl)methyl 2′,4′-difluoro-4-hydroxyl-[1,1′-biphenyl]-3-carboxylate hydrochloride], the “The cumulative amount of test compounds” value ([2]; 1 h) is reported as 0.43 mg, the “The cumulative amount of test compounds” value ([2]; 2 h) is reported as 0.99 mg and the “The cumulative amount of test compounds” value ([2]; 4 h) is reported as 2.01 mg. For the same compound, the “The cumulative amount of test compounds” value ([2]; 8 h) was 4.05 mg.
In the case of `O=C(O)c1ccccc1O` [Compound-6, Salicylic acid, reference compound], the infarct volume ([4]; 60 mg/kg oral bid 14 days) is reported as 37.47%±2.856, the “reduction of infarct volumes” value [4] is reported as “little reduction” and the “The cumulative amount of test compounds” value ([2]; 1 h) is reported as 0.000 mg. For the same compound, the “The cumulative amount of test compounds” value ([2]; 2 h) was 0.001 mg, the “The cumulative amount of test compounds” value ([2]; 4 h) was 0.002 mg and the “The cumulative amount of test compounds” value ([2]; 8 h) was 0.002 mg.
For `CC1=NN(c2ccccc2)C(=O)C1` [Edaravone, reference compound], the infarct volume ([3]; 3 mg/kg i.v. q.d. 14 days) was 39.27%±2.513, the “reduction of infarct volumes” value [3] was “little reduction” and the infarct volume ([5]; 3 mg/kg i.v. q.d. 14 days) was 38.07%±2.031. For the same compound, the “reduction of infarct volumes” value [5] was “little reduction”, the infarct volume ([6]; 3 mg/kg i.v. q.d. 14 days) was 40.35%±2.078 and the “reduction of infarct volumes” value [6] was “little reduction”. The infarct volume ([1]; 3 mg/kg i.v. q.d. 14 days) was 41.33%±2.792, the “reduction of infarct volumes” value [1] was “little reduction” and the infarct volume ([4]; 3 mg/kg i.v. q.d. 14 days) was 39.94%±2.256. For the same compound, the “reduction of infarct volumes” value [4] was “little reduction”.
For `CCN(CC)CCOC(=O)c1ccccc1OC(=O)c1ccccc1O.Cl` [Compound-16, 2-(diethylamino)ethyl 2-(2-hydroxybenzoyl)oxybenzoate hydrochloride], the “The cumulative amount of test compounds” value ([2]; 1 h) was 0.37 mg, the “The cumulative amount of test compounds” value ([2]; 2 h) was 0.87 mg and the “The cumulative amount of test compounds” value ([2]; 4 h) was 1.71 mg. For the same compound, the “The cumulative amount of test compounds” value ([2]; 8 h) was 3.56 mg.
In the case of `CCN(CC)CCOC(=O)c1cc(-c2ccc(F)cc2F)ccc1OC(C)=O.Cl` [Compound-7, 2-(diethylamino)ethyl 2′,4′-difluoro-4-acetoxy-[1,1′-biphenyl]-3-carboxylate hydrochloride], the “The cumulative amount of test compounds” value ([2]; 1 h) is reported as 0.53 mg, the “The cumulative amount of test compounds” value ([2]; 2 h) is reported as 1.07 mg and the “The cumulative amount of test compounds” value ([2]; 4 h) is reported as 2.16 mg. The “The cumulative amount of test compounds” value ([2]; 8 h) was 4.33 mg.
In the case of `Cl.O=C(Oc1ccccc1C(=O)OCC1CCCN1)c1ccccc1O` (stereo not shown) [Compound-17, (pyrrolidin-2-yl)methyl 2-(2-hydroxybenzoyl)oxybenzoate hydrochloride], the “The cumulative amount of test compounds” value ([2]; 1 h) is reported as 0.32 mg, the “The cumulative amount of test compounds” value ([2]; 2 h) is reported as 0.68 mg and the “The cumulative amount of test compounds” value ([2]; 4 h) is reported as 1.39 mg. For the same compound, the “The cumulative amount of test compounds” value ([2]; 8 h) was 2.97 mg.
In the case of `CC(=O)Oc1ccc(-c2ccc(F)cc2F)cc1C(=O)O` [Compound-9, 2′,4′-difluoro-4-acetoxy-[1,1′-biphenyl]-3-carboxylic acid, reference compound], the infarct volume ([6]; 60 mg/kg oral bid 14 days) is reported as 38.95%±2.176, the “reduction of infarct volumes” value [6] is reported as “little reduction” and the “The cumulative amount of test compounds” value ([2]; 1 h) is reported as 0.000 mg. For the same compound, the “The cumulative amount of test compounds” value ([2]; 2 h) was 0.000 mg, the “The cumulative amount of test compounds” value ([2]; 4 h) was 0.001 mg and the “The cumulative amount of test compounds” value ([2]; 8 h) was 0.002 mg.
With `CCN(CC)CCOC(=O)c1ccccc1OC(=O)c1ccccc1OC(C)=O.Cl` [Compound-13, 2-(diethylamino)ethyl 2-(2-acetoxybenzoyl)oxybenzoate hydrochloride] the “The cumulative amount of test compounds” value ([2]; 1 h) was 0.46 mg, the “The cumulative amount of test compounds” value ([2]; 2 h) was 0.97 mg and the “The cumulative amount of test compounds” value ([2]; 4 h) was 1.99 mg. The “The cumulative amount of test compounds” value ([2]; 8 h) was 3.89 mg.
For `CC(=O)Oc1ccc(-c2ccc(F)cc2F)cc1C(=O)OCC1CCCN1.Cl` (stereo not shown) [Compound-8, (pyrrolidin-2-yl)methyl 2′,4′-difluoro-4-acetoxy-[1,1′-biphenyl]-3-carboxylate hydrochloride], the infarct volume [6, 9] was 33.53%±1.986, the “neuroprotective effect” value [6, 10] was “good neuroprotective effect” and the neurological deficit scores [6, 11] was “show differences significantly”. The infarct volume [6, 12] was 37.52%±2.789, the body weight [6, 13] was “increased” and the infarct volume [6, 14] was 35.02%±2.827. The “The cumulative amount of test compounds” value ([2]; 1 h) was 0.45 mg, the “The cumulative amount of test compounds” value ([2]; 2 h) was 0.98 mg and the “The cumulative amount of test compounds” value ([2]; 4 h) was 2.02 mg. The “The cumulative amount of test compounds” value ([2]; 8 h) was 4.11 mg.
In the case of `CCN(CC)CCOC(=O)c1ccccc1O.Cl` [Compound-4, 2-(diethylamino)ethyl hydroxybenzoate hydrochloride], the infarct volume [4, 9] is reported as 34.56%±2.563, the “neuroprotective effect” value [4, 10] is reported as “good neuroprotective effect” and the neurological deficit scores [4, 11] is reported as “show differences significantly”. The infarct volume [4, 12] was 37.01%±2.053, the body weight [4, 13] was “increased” and the infarct volume [4, 14] was 35.77%±1.875.
In the case of `CCN(CC)CCOC(=O)c1cc(-c2ccc(F)cc2F)ccc1O.Cl` [Compound-10, 2-(diethylamino)ethyl 2′,4′-difluoro-4-hydroxyl-[1,1′-biphenyl]-3-carboxylate hydrochloride], the “The cumulative amount of test compounds” value ([2]; 1 h) is reported as 0.49 mg, the “The cumulative amount of test compounds” value ([2]; 2 h) is reported as 1.03 mg and the “The cumulative amount of test compounds” value ([2]; 4 h) is reported as 2.12 mg. The “The cumulative amount of test compounds” value ([2]; 8 h) was 4.39 mg.
For `CC(=O)Oc1ccccc1C(=O)O` [Compound-3, Aspirin], the infarct volume ([3]; 60 mg/kg oral bid 14 days) was 37.99%±1.985, the “reduction of infarct volumes” value [3] was “little reduction” and the infarct volume ([7]; Day 28 after MCA thrombosis) was 1901 mm^3. For the same compound, the Mortality rate [7] was 1/5, the “hemorrhage in the penumbra area” value [7] was “showed hemorrhage” and the “liquefaction in the infarct area (histopathology)” value [7] was “moderate”. The neurological deficits ([7]; until 28 days after MCA thrombosis) was “tended to show slight recovery”, the infarct volume ([5]; 60 mg/kg oral bid 14 days) was 36.27%±2.123 and the “reduction of infarct volumes” value [5] was “little reduction”. The “degeneration of myocardium and myocardial necrosis (histopathology)” value [8] was “moderate”, the “infarct volume (myocardial)” value ([8]; 28 days after MCA thrombosis) was 431 mm^3 and the “The cumulative amount of test compounds” value ([2]; 1 h) was 0.000 mg. For the same compound, the “The cumulative amount of test compounds” value ([2]; 2 h) was 0.001 mg, the “The cumulative amount of test compounds” value ([2]; 4 h) was 0.002 mg and the “The cumulative amount of test compounds” value ([2]; 8 h) was 0.003 mg.
With `O=C(Oc1ccccc1C(=O)O)c1ccccc1O` [Compound-18, 2-(2-hydroxybenzoyl)oxybenzoic acid, reference compound] the “The cumulative amount of test compounds” value ([2]; 1 h) was 0.000 mg, the “The cumulative amount of test compounds” value ([2]; 2 h) was 0.000 mg and the “The cumulative amount of test compounds” value ([2]; 4 h) was 0.001 mg. For the same compound, the “The cumulative amount of test compounds” value ([2]; 8 h) was 0.001 mg.
For `CC(=O)Oc1ccccc1C(=O)Oc1ccccc1C(=O)O` [Compound-15, 2-(2-acetoxybenzoyl)oxybenzoic acid, reference compound], the infarct volume ([1]; 60 mg/kg oral bid 14 days) was 39.25%±2.981, the “reduction of infarct volumes” value [1] was “little reduction” and the “The cumulative amount of test compounds” value ([2]; 1 h) was 0.000 mg. For the same compound, the “The cumulative amount of test compounds” value ([2]; 2 h) was 0.000 mg, the “The cumulative amount of test compounds” value ([2]; 4 h) was 0.001 mg and the “The cumulative amount of test compounds” value ([2]; 8 h) was 0.001 mg.
